Data published in publication PMC6081956 (ChemMedChem, 2018).
Entries after “also recorded” stand apart in the source; their conditions may differ. Like-named read-outs stand apart in the source and are kept apart here.

What was measured:
[1] = test system: PXR target gene Cyp3a11 mRNA; experiment: Cyp3a11 mRNA expression; assay type: cell-based; conditions: PXR-humanized mouse hepatocytes, 10 µM, 72 h, normalized to GAPDH
PXR-LBD-SRC1p [2] = target: T1, PXR-LBD-SRC1p (Homo sapiens, UniProt O75469); experiment: Isothermal titration calorimetry; assay type: binding; conditions: for N value (stoichiometry, single-site binding model) / -TΔS° / ΔH° / ΔG°: direct ITC; for -TΔS° / ΔH°: 25°C; for ΔG°: from KD by ΔG° = -RTlnKD
T1 sequence (O75469 with tags, fused parts or gaps): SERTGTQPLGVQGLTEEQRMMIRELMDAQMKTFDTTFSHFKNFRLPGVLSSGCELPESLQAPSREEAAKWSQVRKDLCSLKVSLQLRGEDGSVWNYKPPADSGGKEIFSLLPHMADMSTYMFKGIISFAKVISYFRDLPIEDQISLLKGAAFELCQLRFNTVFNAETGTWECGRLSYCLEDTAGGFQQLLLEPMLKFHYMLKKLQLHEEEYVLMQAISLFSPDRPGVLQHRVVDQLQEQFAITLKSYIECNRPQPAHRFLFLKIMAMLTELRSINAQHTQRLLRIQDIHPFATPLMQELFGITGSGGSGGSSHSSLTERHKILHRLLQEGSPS

CYP3A4 mRNA = assay type: cell-based; conditions: 10 µM 8-OHEFV co-incubated with 2 µM RIF, 48 h, primary human hepatocytes, p=0.004
[3] = 129 patients receiving 600 mg of EFV per day, cited from earlier work
[4] = test system: PXR target gene Cyp3a11 mRNA; experiment: Cyp3a11 mRNA expression; assay type: cell-based; conditions: PXR-null mouse hepatocytes, 10 µM, 72 h
PXR-LBD-SRC1p [5] = target: T1, PXR-LBD-SRC1p; experiment: Competitive isothermal titration calorimetry; assay type: binding; conditions: for ΔG°: from KD of competitive ITC
PXR-LBD = target: T2, PXR-LBD (Homo sapiens, UniProt O75469); experiment: biochemical
T2 sequence (O75469 111-434): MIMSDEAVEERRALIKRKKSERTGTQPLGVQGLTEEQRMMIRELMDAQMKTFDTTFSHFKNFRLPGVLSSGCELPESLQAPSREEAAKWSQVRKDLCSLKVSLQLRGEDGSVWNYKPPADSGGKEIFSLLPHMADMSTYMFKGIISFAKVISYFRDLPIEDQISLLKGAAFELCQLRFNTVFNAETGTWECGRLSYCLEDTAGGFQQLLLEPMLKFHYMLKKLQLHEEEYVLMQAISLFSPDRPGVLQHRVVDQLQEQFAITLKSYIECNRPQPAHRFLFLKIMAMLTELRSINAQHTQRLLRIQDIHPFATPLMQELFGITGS

Kd (PXR-LBD-SRC1p [2]) [µM] | -TΔS° (PXR-LBD-SRC1p [2]) [kcal/mol•K] | ΔH° (PXR-LBD-SRC1p [2]) [kcal/mol] | ΔG° (PXR-LBD-SRC1p [2]) [kcal/mol] | Kd (PXR-LBD-SRC1p [5]) [µM] | ΔG° (PXR-LBD-SRC1p [5]) [kcal/mol] | SMILES | other results
7.9 ± 7.7 | −3.8 ± 1.5 | -3.1 ± 1.2 | -6.9 ± 0.3 |  |  | O=C1Nc2c(O)cc(Cl)cc2[C@@](C#CC2CC2)(C(F)(F)F)O1 [8-OHEFV, (S)-6-chloro-4-(cyclopropylethynyl)-8-hydroxy-4-(trifluoromethyl)-1,4-dihydro-2H-benzo[d][1,3]oxazin-2-one] | Cyp3a11 mRNA levels, fold change from DMSO control [1]: did not result in modulation of Cyp3a11 mRNA levels; also recorded: did not result in a change in Cyp3a11 mRNA levels; N value (stoichiometry, single-site binding model) (PXR-LBD-SRC1p [2]): approximately 1.0; decrease in CYP3A4 mRNA induction as compared to 2 µM RIF alone (CYP3A4 mRNA): ~20%; plasma concentration ([3]; at 4 weeks ref 7): 6.51 ± 0.87 µM; plasma concentration ([3]; at 16 weeks ref 7): 6.84 ± 1.06 µM
78.7 ± 15.3 | −4.5 ±0.2 | -1.1 ± 0.1 | -5.6 ± 0.1 |  |  | CCCC#CC1(C(F)(F)F)OC(=O)Nc2ccc(Cl)cc21 (stereo not shown) [analog 4, 6-chloro-4-(pent-1-yn-1-yl)-4-(trifluoromethyl)-1,4-dihydro-2H-benzo[d][1,3]oxazin-2-one] | 
 |  |  |  | 14.5 ± 4.3 | -6.6 ± 0.1 | COc1ccc(CNc2ccc(Cl)cc2[C@](O)(C#CC2CC2)C(F)(F)F)cc1 [analog 5, (R)-2-(5-chloro-2-((4-methoxybenzyl)amino)phenyl)-4-cyclopropyl-1,1,1-trifluorobut-3-yn-2-ol] | 
 |  |  |  | 9.5 ± 2.7 | -6.8 ± 0.2 | COc1ccc(CNc2ccc(Cl)cc2[C@@](O)(C#CC2CC2)C(F)(F)F)cc1 [analog 6, (S)-2-(5-chloro-2-((4-methoxybenzyl)amino)phenyl)-4-cyclopropyl-1,1,1-trifluorobut-3-yn-2-ol] | 
 |  |  |  | 4.2 ± 1.1 | -7.3 ± 0.2 | COc1ccc(C(=O)Nc2ccc(Cl)cc2C(O)(C#CC2CC2)C(F)(F)F)cc1 (stereo not shown) [analog 7, N-(4-chloro-2-(4-cyclopropyl-1,1,1-trifluoro-2-hydroxybut-3-yn-2-yl)phenyl)-4-methoxybenzamide] | Cyp3a11 mRNA levels, fold change from DMSO control [1]: 37 fold
14.9 ± 2.6 | −4.8 ±0.3 | -1.8 ± 0.1 | -6.6 ± 0.1 |  |  | FC(F)(F)[C@@]1(C#CC2CC2)OCNc2ccc(Cl)cc21 [analog 8, (S)-6-chloro-4-(cyclopropylethynyl)-4-(trifluoromethyl)-1,4-dihydro-2H-benzo[d][1,3]oxazine] | 
 |  |  |  |  |  | COc1ccc(C2Nc3ccc(Cl)cc3[C@@](C#CC3CC3)(C(F)(F)F)O2)cc1 (stereo partly drawn) [analog 9, (S)-6-chloro-4-(cyclopropylethynyl)-2-(4-methoxyphenyl)-4-(trifluoromethyl)-1,4-dihydro-2H-benzo[d][1,3]oxazine] | IC50 (PXR-LBD): 39.3 ± 24.1 µM
 |  |  |  | > 400 |  | Nc1ccc(Cl)cc1C(=O)C(F)(F)F [analog 10, 1-(2-amino-5-chlorophenyl)-2,2,2-trifluoroethan-1-one] | Cyp3a11 mRNA levels, fold change from DMSO control [1]: no change in the Cyp3a11 mRNA levels
10.9 ± 1.8 | −5.1 ±0.2 | -1.6 ± 0.2 | -6.8 ± 0.1 |  |  | O=C1Oc2ccc(Cl)cc2C(C#CC2CC2)(C(F)(F)F)O1 (stereo not shown) [analog 15, 6-chloro-4-(cyclopropylethynyl)-4-(trifluoromethyl)-4H-benzo[d][1,3]dioxin-2-one] | 
 |  |  |  | 10.5 ± 1.5 | -6.8 ± 0.2 | O=C1Cc2ccc(Cl)cc2C(C#CC2CC2)(C(F)(F)F)O1 (stereo not shown) [analog 16, 7-chloro-1-(cyclopropylethynyl)-1-(trifluoromethyl)isochroman-3-one] | 

SMILES | Kd (PXR-LBD-SRC1p [2]) [µM] | -TΔS° (PXR-LBD-SRC1p [2]) [kcal/mol•K] | ΔH° (PXR-LBD-SRC1p [2]) [kcal/mol] | ΔG° (PXR-LBD-SRC1p [2]) [kcal/mol] | Kd (PXR-LBD-SRC1p [5]) [µM] | ΔG° (PXR-LBD-SRC1p [5]) [kcal/mol] | other results
O=C1Nc2ccc(Cl)cc2[C@@](C#CC2CC2)(C(F)(F)F)O1 [EFV, (S)-6-chloro-4-(cyclopropylethynyl)-4-(trifluoromethyl)-1,4-dihydro-2H-benzo[d][1,3]oxazin-2-one, reference compound] |  | −4.9 ±0.4 | -2.1 ± 0.3 | -6.9 ± 0.2 |  |  | Cyp3a11 mRNA abundance [4]: no impact on Cyp3a11 mRNA abundance; N value (stoichiometry, single-site binding model) (PXR-LBD-SRC1p [2]): approximately 1.0; plasma concentration ([3]; at 4 weeks ref 7): 10.61 ± 1.11 µM; plasma concentration ([3]; at 16 weeks ref 7): 10.33 ± 0.98 µM
